From patent publication US10045983B2, “Heteroaryl pyridone and aza-pyrodine compounds” (Genentech, Inc., priority 2011, dated 2018)

Assay: CD69 Whole Blood Assay (CD69 Hu Blood FACS)
Assay type: cell-based, human
Settings: Lymphocyte; human whole blood, anti-IgM activated B lymphocytes, FACS; IC70; Table 1; read-out: CD69 Hu Blood FACS IC70
From the text: A CD69 Whole Blood Assay can be conducted on Formula I compounds to determine the ability of compounds to inhibit the production of CD69 by B lymphocytes in human whole blood activated by crosslinking surface IgM with goat F(ab′)2 anti-human IgM (Example 907). CD69 is a type II C-type lectin involved in lymphocyte migration and cytokine secretion. CD69 expression represents one of the earliest available indicators of leukocyte activation and its rapid induction occurs through transcriptional activation (Vazquez et al (2009) Jour. of Immunology Published Oct. 19, 2009, doi:10.4049/jimmunol.0900839). Concentration-dependent inhibition of antigen receptor stimulation by selective Btk inhibitors induces cell surface expression of the lymphocyte activation marker CD69 (Honigberg et al (2010) Proc. Natl. Acad. Sci. 107(29):13075-13080). Thus, CD69 inhibition by selective Btk inhibitors may be correlated with therapeutic efficacy of certain B-cell disorders.

Q: For `Cn1cc(-c2ccnc(N3CCn4c(cc5c4CCCC5)C3=O)c2CO)cc(Nc2ccc(N3CCN(CC(C)(C)O)CC3)cn2)c1=O` [Example 120, 2-(4-(5-(5-(4-(2-Hydroxy-2-methylpropyl)piperazin-1-yl)pyridin-2-ylamino)-1-methyl-6-oxo-1,6-dihydropyridin-3-yl)-3-(hydroxymethyl)pyridin-2-yl)-3,4,6,7,8,9-hexahydropyrazino[1,2-a]indol-1(2H)-one], which IC70 is on record?
A: 0.283 µM

Q: For `Cn1cc(-c2ccnc(-n3ccn4c5c(cc4c3=O)CCCC5)c2CO)cc(Nc2ccc(N3CCN(C4COC4)CC3)cn2)c1=O` [Example 121, 2-(3-(hydroxymethyl)-4-(1-methyl-5-(5-(4-(oxetan-3-yl)piperazin-1-yl)pyridine-2-ylamino)-6-oxo-1,6-dihydropyridin-3-yl)pyridin-2-yl)-6,7,8,9-tetrahydropyrazino[1,2-a]indol-1(2H)-one], which IC70 is on record?
A: 0.0323 µM

Q: For `C[C@@H]1CN(c2ccc(Nc3cc(-c4ccnc(N5CCn6c(cc7c6CCCC7)C5=O)c4CO)cn(C)c3=O)nc2)[C@@H](C)CN1C1COC1` [Example 122, 2-(4-(5-(5-((2S,5R)-2,5-Dimethyl-4-(oxetan-3-yl)piperazin-1-yl)pyridin-2-ylamino)-1-methyl-6-oxo-1,6-dihydropyridin-3-yl)-3-(hydroxymethyl)pyridin-2-yl)-3,4,6,7,8,9-hexahydropyrazino[1,2-a]indol-1(2H)-one], which IC70 is on record?
A: 0.0127 µM

Q: For `Cn1cc(-c2ccnc(N3CCn4c(cc5c4CCCC5)C3=O)c2CO)cc(Nc2ccc(N3CCN(CCO)CC3)cn2)c1=O` [Example 123, 2-(4-(5-(5-(4-(2-Hydroxyethyl)piperazin-1-yl)pyridin-2-ylamino)-1-methyl-6-oxo-1,6-dihydropyridin-3-yl)-3-(hydroxymethyl)pyridin-2-yl)-3,4,6,7,8,9-hexahydro-pyrazino[1,2-a]indol-1(2H)-one], which IC70 is on record?
A: 0.0331 µM

Q: Which IC70 does the source give for `Cn1cc(-c2ccnc(-n3ncc4c5c(sc4c3=O)CCCC5)c2CO)cc(Nc2ccc(N3CCN(C4COC4)CC3)cn2)c1=O` [Example 124, 3-Hydroxymethyl-4-[1-methyl-5-(5-(4-(oxetan-3-yl)piperazin-1-yl)pyridine-2-ylamino)-6-oxo-1,6-dihydropyridin-3-yl]-2-{6-oxo-8-thia-4,5-diazatricyclo[7.4.0.0^2,7]trideca-1(9),2(7),3-trien-5-yl}pyridine] here?
A: 0.0362 µM

Q: Which IC70 does the source give for `Cn1cc(-c2ccnc(N3CCn4c(cc5c4CCCC5)C3=O)c2CO)cc(Nc2cc3n(n2)CCN(C2COC2)C3)c1=O` [Example 125, 2-(3-(Hydroxymethyl)-4-(1-methyl-5-(5-(oxetan-3-yl)-4,5,6,7-tetrahydropyrazolo[1,5-a]pyrazin-2-ylamino)-6-oxo-1,6-dihydropyridin-3-yl)pyridin-2-yl)-3,4,6,7,8,9-hexahydropyrazino[1,2-a]indol-1(2H)-one] here?
A: 0.0873 µM

Q: For `Cn1cc(-c2cncc(-n3ccn4c5c(cc4c3=O)CCCC5)c2CO)cc(Nc2ccc(N3CCN(C4COC4)CC3)cn2)c1=O` [Example 126, 2-(4-(Hydroxymethyl)-5-(1-methyl-5-(5-(4-(oxetan-3-yl)piperazin-1-yl)pyridin-2-ylamino)-6-oxo-1,6-dihydropyridin-3-yl)pyridin-3-yl)-6,7,8,9-tetrahydropyrazino[1,2-a]indol-1(2H)-one], which IC70 is on record?
A: 0.138 µM

Q: For `Cn1cc(-c2ccnc(N3CCn4c(cc5c4CCCC5)C3=O)c2CO)cc(Nc2ccc(N3CCNCC3)cn2)c1=O` [Example 127, 2-(3-(Hydroxymethyl)-4-(1-methyl-6-oxo-5-(5-(piperazin-1-yl)pyridin-2-ylamino)-1,6-dihydropyridin-3-yl)pyridin-2-yl)-3,4,6,7,8,9-hexahydropyrazino[1,2-a]indol-1(2H)-one], which IC70 is on record?
A: 0.141 µM

Q: With `Cn1cc(-c2ccnc(N3CCn4c(cc5c4CCCC5)C3=O)c2CO)cc(Nc2cc3n(n2)CCN(C2CC2)C3)c1=O` [Example 128, 2-(4-(5-(5-Cyclopropyl-4,5,6,7-tetrahydropyrazolo[1,5-a]pyrazin-2-ylamino)-1-methyl-6-oxo-1,6-dihydropyridin-3-yl)-3-(hydroxymethyl)pyridin-2-yl)-3,4,6,7,8,9-hexahydropyrazino[1,2-a]indol-1(2H)-one] as the compound, how does the IC70 read?
A: 0.0918 µM

Q: For `Cn1cc(-c2ccnc(N3CCn4c(cc5c4CCCC5)C3=O)c2CO)cc(Nc2cc3n(n2)CCOC3)c1=O` [Example 129, 2-(4-(5-(6,7-Dihydro-4H-pyrazolo[5,1-c][1,4]oxazin-2-ylamino)-1-methyl-6-oxo-1,6-dihydropyridin-3-yl)-3-(hydroxymethyl)pyridin-2-yl)-3,4,6,7,8,9-hexahydropyrazino[1,2-a]indol-1(2H)-one], which IC70 is on record?
A: 0.0917 µM

Q: Which IC70 does the source give for `C[C@H]1CN(C2COC2)CCN1c1ccc(Nc2cc(-c3ccnc(N4CCn5c(cc6c5CC(C)(C)C6)C4=O)c3CO)cn(C)c2=O)nc1` [Example 130, (3 S)-10-[4-[1-methyl-5-({5-[2-methyl 4-(oxetan-3-yl)piperazin-1-yl]pyridine-2-yl}amino)-6-oxo-1,6-dihydropyridin-3-yl]-3-(hydroxymethyl)pyridin-2-yl]-4,4-dimethyl-1,10-diazatricyclo[6.4.0.0^2,6]dodeca-2(6),7-dien-9-one] here?
A: 0.012 µM

Q: With `CC[C@H]1CN(C2COC2)CCN1c1ccc(Nc2cc(-c3ccnc(N4CCn5c(cc6c5CCCC6)C4=O)c3CO)cn(C)c2=O)nc1` [Example 131, (S)-2-(4-(5-(5-(2-ethyl-4-(oxetan-3-yl)piperazin-1-yl)pyridin-2-ylamino)-1-methyl-6-oxo-1,6-dihydropyridin-3-yl)-3-(hydroxymethyl)pyridin-2-yl)-3,4,6,7,8,9-hexahydropyrazino[1,2-a]indol-1(2H)-one] as the compound, how does the IC70 read?
A: 0.0155 µM

Q: For `Cn1nc(-c2ccnc(N3CCn4c(cc5c4CCCC5)C3=O)c2CO)cc(Nc2cc3n(n2)CCOC3)c1=O` [Example 132, 2-(4-(5-(6,7-Dihydro-4H-pyrazolo[5,1-c][1,4]oxazin-2-ylamino)-1-methyl-6-oxo-1,6-dihydropyridazin-3-yl)-3-(hydroxymethyl)pyridin-2-yl)-3,4,6,7,8,9-hexahydropyrazino[1,2-a]indol-1(2H)-one], which IC70 is on record?
A: 0.263 µM

Q: With `CN1CCn2nc(Nc3cc(-c4ccnc(N5CCn6c(cc7c6CCCC7)C5=O)c4CO)nn(C)c3=O)cc2C1` [Example 133, 2-(3-(Hydroxymethyl)-4-(1-methyl-5-(5-methyl-4,5,6,7-tetrahydropyrazolo[1,5-a]pyrazin-2-ylamino)-6-oxo-1,6-dihydropyridazin-3-yl)pyridin-2-yl)-3,4,6,7,8,9-hexahydropyrazino[1,2-a]indol-1(2H)-one] as the compound, how does the IC70 read?
A: 0.227 µM

Q: For `Cn1cc(-c2ccnc(N3CCn4c5c(c(F)c4C3=O)CCCC5)c2CO)cc(Nc2ccc(N3CCN(C4COC4)CC3)cn2)c1=O` [Example 134, 10-Fluoro-2-(3-(hydroxymethyl)-4-(1-methyl-5-(5-(4-(oxetan-3-yl)piperazin-1-yl)pyridin-2-ylamino)-6-oxo-1,6-dihydropyridin-3-yl)pyridin-2-yl)-3,4,6,7,8,9-hexahydropyrazino[1,2-a]indol-1(2H)-one], which IC70 is on record?
A: 0.0944 µM

Q: With `CN1CCn2nc(Nc3cc(-c4ccnc(N5CCn6c7c(c(F)c6C5=O)CCCC7)c4CO)cn(C)c3=O)cc2C1` [Example 135, 10-Fluoro-2-(3-(hydroxymethyl)-4-(1-methyl-5-(5-methyl-4,5,6,7-tetrahydropyrazolo[1,5-a]pyrazin-2-ylamino)-6-oxo-1,6-dihydropyridin-3-yl)pyridin-2-yl)-3,4,6,7,8,9-hexahydropyrazino[1,2-a]indol-1(2H)-one] as the compound, how does the IC70 read?
A: 0.107 µM

Q: With `C[C@H]1CN(C2COC2)CCN1c1ccc(Nc2cc(-c3ccnc(N4CCn5c6c(c(F)c5C4=O)CCCC6)c3CO)cn(C)c2=O)nc1` [Example 136, (S)-10-Fluoro-2-(3-(hydroxymethyl)-4-(1-methyl-5-(5-(2-methyl-4-(oxetan-3-yl)piperazin-1-yl)pyridin-2-ylamino)-6-oxo-1,6-dihydropyridin-3-yl)pyridin-2-yl)-3,4,6,7,8,9-hexahydropyrazino[1,2-a]indol-1(2H)-one] as the compound, how does the IC70 read?
A: 0.03 µM

Q: Which IC70 does the source give for `C[C@@H]1CN(C2COC2)CCN1c1ccc(Nc2cc(-c3ccnc(N4CCn5c(cc6c5CCCC6)C4=O)c3CO)cn(C)c2=O)nc1` [Example 137, (R)-2-(3-(hydroxymethyl)-4-(1-methyl-5-(5-(2-methyl-4-(oxetan-3-yl)piperazin-1-yl)pyridin-2-ylamino)-6-oxo-1,6-dihydropyridin-3-yl)pyridin-2-yl)-3,4,6,7,8,9-hexa-hydropyrazino[1,2-a]indol-1(2H)-one] here?
A: 0.0646 µM

Q: For `CN1CCn2nc(Nc3cc(-c4cncc(N5CCn6c(cc7c6CCCC7)C5=O)c4CO)cn(C)c3=O)cc2C1` [Example 138, 2-(4-(Hydroxymethyl)-5-(1-methyl-5-(5-methyl-4,5,6,7-tetrahydropyrazolo[1,5-a]pyrazin-2-ylamino)-6-oxo-1,6-dihydropyridin-3-yl)pyridin-3-yl)-3,4,6,7,8,9-hexahydropyrazino[1,2-a]indol-1(2H)-one], which IC70 is on record?
A: 0.353 µM

Q: For `Cn1cc(-c2ccnc(N3CCc4c(cc5n4CCCC5)C3=O)c2CO)cc(Nc2ccc(N3CCN(C4COC4)CC3)cn2)c1=O` [Example 139, 2-(3-(Hydroxymethyl)-4-(1-methyl-5-(5-(4-(oxetan-3-yl)piperazin-1-yl)pyridine-2-ylamino)-6-oxo-1,6-dihydropyridin-3-yl)pyridin-2-yl)-3,4,6,7,8,9-hexahydropyrido[3,4-b]indolizin-1(2H)-one], which IC70 is on record?
A: 0.326 µM

Q: With `C[C@H]1CN(C2COC2)CCN1c1ccc(Nc2cc(-c3ccnc(N4CCn5c(cc6c5CC(F)(F)CC6)C4=O)c3CO)cn(C)c2=O)nc1` [Example 140, (S)-7,7-Difluoro-2-(3-(hydroxymethyl)-4-(1-methyl-5-(5-(2-methyl-4-(oxetan-3-yl)piperazin-1-yl)pyridin-2-ylamino)-6-oxo-1,6-dihydropyridin-3-yl)pyridin-2-yl)-3,4,6,7,8,9-hexahydropyrazino[1,2-a]indol-1(2H)-one] as the compound, how does the IC70 read?
A: 0.308 µM
